Assay results published in patent US4252970A, “6-Deoxyneamines” (The Upjohn Company, priority 1979, dated 1981).
Converted amounts (≈) assume the structure as drawn.

Tests used:
Type in all cases: cell-based
[1] = system: P. rettgeri UC 339; test: standard microplate test in BHI Agar (MIC); settings: Providencia rettgeri, UC339, 37°, 20 hours, read-out: Minimum Inhibitory Concentration
Protocol: (§1) The compounds VII, XI, XVβ, XVα and XVI were tested in a standard microplate test in BHI (Brain Heart Infusion) Agar at a concentration of 1 mg./ml. and dilutions thereof at 37° incubation temperature. The end points are read at 20 hours. BHI Agar is supplied by Difco Laboratories, Detroit, Michigan, U.S.A. and has the following compositions: […]

[2] = system: S. aureus UC 76; test: standard microplate test in BHI Agar (MIC); settings: Staphylococcus aureus, UC76, 37°, 20 hours, read-out: Minimum Inhibitory Concentration
Protocol: as §1

[3] = system: Ps. aeruginosa UC 95; test: standard microplate test in BHI Agar (MIC); settings: Pseudomonas aeruginosa, UC95, 37°, 20 hours, read-out: Minimum Inhibitory Concentration
Protocol: as §1

[4] = system: S. pyogenes UC 152; test: standard microplate test in BHI Agar (MIC); settings: Streptococcus pyogenes, UC152, 37°, 20 hours, read-out: Minimum Inhibitory Concentration
Protocol: as §1

[5] = system: K. pneumoniae UC 58; test: standard microplate test in BHI Agar (MIC); settings: Klebsiella pneumoniae, UC58, 37°, 20 hours, read-out: Minimum Inhibitory Concentration
Protocol: as §1

[6] = system: S. faecalis UC 694; test: standard microplate test in BHI Agar (MIC); settings: Enterococcus faecalis, UC694, 37°, 20 hours, read-out: Minimum Inhibitory Concentration
Protocol: as §1

[7] = system: S. marcescens UC 131; test: standard microplate test in BHI Agar (MIC); settings: Serratia marcescens, UC131, 37°, 20 hours, read-out: Minimum Inhibitory Concentration
Protocol: as §1

[8] = system: P. vulgaris UC 93; test: standard disc plate assay, zones of inhibition (12.5 mm paper discs)
Description: (§2) The compounds of formulas (V, VII, IX, XI, XIV, XVI, and XIX) are active as antibacterials and can be used in various environments to erradicate or control susceptible microorganisms. Tables I and II set forth the in vitro antibacterial test results for representative compounds of the present invention. The results were obtained with a standard disc plate assay using 12.5 mm paper discs.

[9] = system: S. aureus UC 80; test: as above
Description: as §2

[10] = system: S. schottmuelleri UC 126; test: as above
Description: as §2

[11] = system: E. coli UC 51; test: as above
Description: as §2

[12] = system: B. subtilis UC 564; test: as above
Description: as §2

[13] = system: K. pneumoniae UC 57; test: as above
Description: as §2

[14] = system: Ps. aeruginosa UC 95; test: as above; settings: 1 mg/ml
Description: as §2

[15] = system: B. cereus UC 3145; test: as above; settings: 1 mg/ml
Description: as §2

## C[C@@]1(O)C[C@H](N)C[C@H](N)[C@H]1O[C@H]1O[C@H](CN)[C@@H](O)[C@H](O)[C@H]1N [6-Deoxy-5-methyl-neamine]
[1]
  MIC: > 500 mg/L
[2]
  MIC: 15.6 mg/L (≈ 48.7 µM)
[3]
  MIC: > 500 mg/L

## NC[C@H]1O[C@H](O[C@H]2[C@H](O)C[C@H](N)C[C@@H]2N)[C@H](N)[C@@H](O)[C@@H]1O [6-deoxyneamine (XI), 6-Deoxyneamine]
[1]
  MIC: 250 mg/L (≈ 816 µM)
[4]
  MIC: 15.6 mg/L (≈ 50.9 µM)
[5]
  MIC: 7.8 mg/L (≈ 25.5 µM)
[3]
  MIC: > 500 mg/L
[6]
  MIC: > 500 mg/L
[7]
  MIC: 250 mg/L (≈ 816 µM)

## NC[C@H]1O[C@H](O[C@H]2[C@H](O)[C@@H](O)[C@H](N)C[C@@H]2N)[C@H](N)[C@@H](O)[C@@H]1O [Neamine]
[8]; 0.1 mg/ml
  Zones of Inhibition: 15 mm
[8]; 1 mg/ml
  Zones of Inhibition: 28 mm
[9]; 0.1 mg/ml
  Zones of Inhibition: 18 mm
[9]; 1 mg/ml
  Zones of Inhibition: 26 mm
[10]; 0.1 mg/ml
  Zones of Inhibition: 15 mm
[10]; 1 mg/ml
  Zones of Inhibition: 23 mm
[11]; 0.1 mg/ml
  Zones of Inhibition: 18 mm
[11]; 1 mg/ml
  Zones of Inhibition: 25 mm
[12]; 0.1 mg/ml
  Zones of Inhibition: 28 mm
[12]; 1 mg/ml
  Zones of Inhibition: 37 mm
[13]; 0.1 mg/ml
  Zones of Inhibition: 26 mm
[13]; 1 mg/ml
  Zones of Inhibition: 32 mm
[14]
  Zones of Inhibition: 18 mm
[15]
  Zones of Inhibition: 23 mm
